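GI50 is the concentration that inhibits growth by half. TGI: total growth inhibition.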
Columns and labels:
Test in all cases: inhibition of tumour cell growth, NCI panel, 384-well format
[1] = test system: NCI/ADR-RES ovarian
[2] = test system: HL-60(TB) leukemia
[3] = test system: SK-MEL-2 melanoma
[4] = test system: SF-295 CNS
[5] = test system: A549 NSCLC
[6] = test system: SNB-75 CNS
[7] = test system: LOX IMVI melanoma
[8] = test system: NCI-H226 lung
[9] = test system: NCI-H522 lung
[10] = test system: ACHN renal
[11] = test system: HT29 colon
[12] = test system: HOP-62 NSCLC
[13] = test system: MALME-3M melanoma
[14] = test system: SK-MEL-28 melanoma
[15] = test system: NCI-H23 lung
[16] = test system: MDA-MB-435 melanoma
[17] = test system: CAKI-1 renal
[18] = test system: NCI-H322M lung
[19] = test system: SNB-19 CNS
[20] = test system: KM12 colon
[21] = test system: U251 glioblastoma
[22] = test system: DU-145 prostate
[23] = test system: OVCAR-8 ovarian
[24] = test system: K-562 leukemia
[25] = test system: UACC-257 melanoma
[26] = test system: PC-3 prostate
[27] = test system: COLO 205 colon
[28] = test system: MOLT-4 leukemia
[29] = test system: EKVX NSCLC
[30] = test system: IGROV1 ovarian
[31] = test system: M14 melanoma
[32] = test system: MCF7 breast
[33] = test system: HOP-92 NSCLC
[34] = test system: TK-10 renal
[35] = test system: MDA-MB-231 breast
[36] = test system: MDA-MB-468 breast
[37] = test system: OVCAR-3 ovarian
[38] = test system: UO-31 renal
[39] = test system: SW-620 colon
[40] = test system: OVCAR-5 ovarian
[41] = test system: HCC-2998 colon
[42] = test system: T-47D breast
[43] = test system: OVCAR-4 ovarian
[44] = test system: CCRF-CEM leukemia
[45] = test system: SF-539 CNS
[46] = test system: RPMI-8226 leukemia
[47] = test system: SK-MEL-5 melanoma
[48] = test system: BT-549 breast
[49] = test system: NCI-H460 NSCLC
[50] = test system: SK-OV-3 ovarian
[51] = test system: A498 renal
[52] = test system: HCT-15 colon
[53] = test system: SN12C renal
[54] = test system: SF-268 CNS
[55] = test system: 786-0 renal
[56] = test system: UACC-62 melanoma
[57] = test system: RXF 393 renal
[58] = test system: SR leukemia
[59] = test system: HCT-116 colon

`C=CC(=O)Nc1cc(N2CCN(CC)CC2)ccc1Nc1cc(N(C)C(=O)Nc2c(Cl)c(OC)cc(OC)c2Cl)ncn1` gave a GI50 [1] of over 44.6 µM, a TGI [1] of over 78.5 µM and a GI50 [2] of 1.94 µM. It also gave a TGI [2] of 3.37 µM, a GI50 [3] of 1.21 µM and a TGI [3] of 2.46 µM. It also gave a GI50 [4] of 15.8 µM, a TGI [4] of 29.4 µM and a GI50 [5] of 5.63 µM. The TGI [5] was 13.1 µM, the GI50 [6] was 1.98 µM and the TGI [6] was 4.31 µM. The GI50 [7] was 1.87 µM, the TGI [7] was 3.28 µM and the GI50 [8] was 1.84 µM. It also gave a TGI [8] of 4.39 µM, a GI50 [9] of 1.63 µM and a TGI [9] of 3.02 µM. For the same compound, the GI50 [10] was 4.55 µM, the TGI [10] was 10.7 µM and the GI50 [11] was 1.97 µM. For the same compound, the TGI [11] was 3.96 µM, the GI50 [12] was 2.45 µM and the TGI [12] was 6.36 µM. The GI50 [13] was 1.96 µM, the TGI [13] was 3.47 µM and the GI50 [14] was 2.05 µM. The TGI [14] was 4.39 µM, the GI50 [15] was 3.68 µM and the TGI [15] was 10 µM. For the same compound, the GI50 [16] was 2.56 µM, the TGI [16] was 5.84 µM and the GI50 [17] was 2.64 µM. For the same compound, the TGI [17] was 7.01 µM, the GI50 [18] was 10.5 µM and the TGI [18] was 31 µM. For the same compound, the GI50 [19] was 2.89 µM, the TGI [19] was 7.71 µM and the GI50 [20] was 1.76 µM. For the same compound, the TGI [20] was 3.23 µM, the GI50 [21] was 1.89 µM and the TGI [21] was 3.44 µM. It also gave a GI50 [22] of 1.91 µM, a TGI [22] of 3.76 µM and a GI50 [23] of 1.76 µM. For the same compound, the TGI [23] was 3.31 µM, the GI50 [24] was 1.85 µM and the TGI [24] was 3.4 µM. It also gave a GI50 [25] of 1.42 µM, a TGI [25] of 2.78 µM and a GI50 [26] of 1.81 µM. The TGI [26] was 3.27 µM, the GI50 [27] was 2.31 µM and the TGI [27] was 4.24 µM. For the same compound, the GI50 [28] was 0.91 µM, the TGI [28] was 2.21 µM and the GI50 [29] was 2.34 µM. It also gave a TGI [29] of 5.57 µM, a GI50 [30] of 1.86 µM and a TGI [30] of 3.66 µM. For the same compound, the GI50 [31] was 2.38 µM, the TGI [31] was 5.12 µM and the GI50 [32] was 1.75 µM. For the same compound, the TGI [32] was 6.28 µM, the GI50 [33] was 1.02 µM and the TGI [33] was 2.77 µM. The GI50 [34] was 2.18 µM, the TGI [34] was 5.02 µM and the GI50 [35] was 1.67 µM. It also gave a TGI [35] of 3.31 µM, a GI50 [36] of 0.785 µM and a TGI [36] of 2.01 µM. For the same compound, the GI50 [37] was 1.4 µM, the TGI [37] was 2.85 µM and the GI50 [38] was 2.03 µM. For the same compound, the TGI [38] was 4.08 µM, the GI50 [39] was 1.77 µM and the TGI [39] was 3.18 µM. The GI50 [40] was 7.01 µM, the TGI [40] was 19 µM and the GI50 [41] was 1.7 µM. The TGI [41] was 3.08 µM, the GI50 [42] was 1.31 µM and the TGI [42] was 2.99 µM. For the same compound, the GI50 [43] was 2.03 µM, the TGI [43] was 6.62 µM and the GI50 [44] was 1.56 µM. It also gave a TGI [44] of 2.92 µM, a GI50 [45] of 1.58 µM and a TGI [45] of 2.95 µM. It also gave a GI50 [46] of 0.605 µM, a TGI [46] of 1.52 µM and a GI50 [47] of 1.8 µM. It also gave a TGI [47] of 3.43 µM, a GI50 [48] of 1.4 µM and a TGI [48] of 2.73 µM. For the same compound, the GI50 [49] was 1.73 µM, the TGI [49] was 3.18 µM and the GI50 [50] was 2.51 µM. The TGI [50] was 6.71 µM, the GI50 [51] was 1.72 µM and the TGI [51] was 3.14 µM. The GI50 [52] was 2.83 µM, the TGI [52] was 6.99 µM and the GI50 [53] was 2.01 µM. The TGI [53] was 3.74 µM, the GI50 [54] was 1.88 µM and the TGI [54] was 3.96 µM. The GI50 [55] was 1.71 µM, the TGI [55] was 3.14 µM and the GI50 [56] was 1.56 µM. The TGI [56] was 3.03 µM, the GI50 [57] was 0.68 µM and the TGI [57] was 2.19 µM. For the same compound, the GI50 [58] was 0.922 µM, the TGI [58] was 2.23 µM and the GI50 [59] was 1.88 µM. For the same compound, the TGI [59] was 3.46 µM.
